Test results as given in patent US4895864A, “Antibiotic TAN-950A, its production and use” (Takeda Chemical Industries, Ltd., priority 1987, dated 1990).
Where a name gives a salt, the structure may show the parent alone. Read-outs that look alike come from different tables or passages of the source.

Assays:
[1] = system: Candida albicans; experiment: Therapeutic effect on experimental candidosis in mice; assay type: in vivo; details: intravenously infected, twice administration, total of dosages
[2] = system: mice; experiment: Acute toxicity in mice; assay type: in vivo; details: intravenous, subdermal, intraperitoneal or oral, 4000 mg/kg
[3] = Solubility; assay type: physicochemical
From the text: The physico-chemical properties of TAN-950A (monosodium salt) obtained in Example 2 described later are as follows.

[4] = system: Aspergillus fumigatus IFO 6344; experiment: Paper disc agar diffusion, growth-inhibition zone; assay type: cell-based; details: IFO6344, 48 h, monosodium salt, disc 1000 μg/ml, 28 °C, read-out: Diameter of growth-inhibition zone
Protocol: (§1) Paper discs (8 mm. in diameter, manufactured by Toyo Seisakusho) immersed in an aqueous solution of the antibiotic TAN-950A (monosodium salt) (1000 μg/ml) were put on agar plates seeded with the test organism, and these agar plates were incubated at a given […] for a given period of time. In the Table, "0" means no formation of the growth-inhibition zone. Culture media employed are as follows:
(§2) B: Yeast nitrogen base agar medium (Difco Laboratories, USA) supplemented with L-asparagine (0.17%)
(§3) D: Yeast nitrogen base agar medium (Difco Laboratories, USA) supplemented with glucose (2%) and agar (1.5%)

[5] = system: Candida albicans IFO 0583; experiment: Paper disc agar diffusion, growth-inhibition zone; assay type: cell-based; details: IFO0583, 48 h, monosodium salt, disc 1000 μg/ml, 28 °C, read-out: Diameter of growth-inhibition zone
Protocol: as §1, §2, §3

[6] = system: Candida utilis IFO 0619; experiment: Paper disc agar diffusion, growth-inhibition zone; assay type: cell-based; details: monosodium salt, disc 1000 μg/ml, 28 °C, 48 h, 0 = no zone
Protocol: as §1, §2, §3

[7] = system: Cryptococcus neoformans IFO 0410; experiment: Paper disc agar diffusion, growth-inhibition zone; assay type: cell-based; details: IFO0410, 48 h, monosodium salt, disc 1000 μg/ml, 28 °C, read-out: Diameter of growth-inhibition zone
Protocol: as §1, §2, §3

[8] = system: Filobasidium uniguttulatum IFO 0699; experiment: Paper disc agar diffusion, growth-inhibition zone; assay type: cell-based; details: IFO0699, 48 h, monosodium salt, disc 1000 μg/ml, 28 °C, read-out: Diameter of growth-inhibition zone
Protocol: as §1, §2, §3

[9] = system: Penicillium chrysogenum IFO 4626; experiment: Paper disc agar diffusion, growth-inhibition zone; assay type: cell-based; details: IFO4626, monosodium salt, disc 1000 μg/ml, 28 °C, read-out: Diameter of growth-inhibition zone
Protocol: as §1, §2, §3

[10] = system: Saccharomyces cerevisiae IFO 0209; experiment: Paper disc agar diffusion, growth-inhibition zone; assay type: cell-based; details: IFO0209, 48 h, monosodium salt, disc 1000 μg/ml, 28 °C, read-out: Diameter of growth-inhibition zone
Protocol: as §1, §2, §3

[11] = system: Torulopsis glabrata IFO 1085; experiment: Paper disc agar diffusion, growth-inhibition zone; assay type: cell-based; details: Nakaseomyces glabratus, IFO1085, 48 h, monosodium salt, disc 1000 μg/ml, 28 °C, read-out: Diameter of growth-inhibition zone
Protocol: as §1, §2, §3

[12] = system: Candida parakrusei IFO0640; experiment: Paper disc agar diffusion, growth-inhibition zone; assay type: cell-based; details: monosodium salt, disc 1000 μg/ml, medium D, 28 °C, 48 h, read-out: Diameter of growth-inhibition zone
Protocol: as §1, §3

[13] = system: Candida parapsilosis IFO1396; experiment: Paper disc agar diffusion, growth-inhibition zone; assay type: cell-based; details: Lodderomyces parapsilosis, monosodium salt, disc 1000 μg/ml, medium D, 28 °C, 48 h, read-out: Diameter of growth-inhibition zone
Protocol: as §1, §3

[14] = system: Candida tropicalis IFO0006; experiment: Paper disc agar diffusion, growth-inhibition zone; assay type: cell-based; details: monosodium salt, disc 1000 μg/ml, medium D, 28 °C, 48 h, read-out: Diameter of growth-inhibition zone
Protocol: as §1, §3

[15] = system: Microsporum gypseum IFO 6075; experiment: Paper disc agar diffusion, growth-inhibition zone; assay type: cell-based; details: Nannizzia gypsea, IFO6075; monosodium salt, disc 1000 μg/ml; medium D, 28 °C, 72 h; read-out: Diameter of growth-inhibition zone
Protocol: as §1, §3

[16] = system: Trichophyton rubrum IFO 5467; experiment: Paper disc agar diffusion, growth-inhibition zone; assay type: cell-based; details: IFO5467, monosodium salt, disc 1000 μg/ml, 28 °C, read-out: Diameter of growth-inhibition zone
Protocol: as §1
A: Sabouraud's dextrose agar medium
as §3

[17] = system: Bacillus subtilis PCI 219; experiment: Paper disc agar diffusion, growth-inhibition zone; assay type: cell-based; details: PCI219, monosodium salt, disc 1000 μg/ml, medium C, 37 °C, 20 h, 0 = no zone, read-out: Diameter of growth-inhibition zone
Protocol: as §1
(§4) C: Trypticase soy agar (Becton Dickinson Co., USA)

[18] = system: Escherichia coli NIH JC-2; experiment: Paper disc agar diffusion, growth-inhibition zone; assay type: cell-based; details: NIHJC2, monosodium salt, disc 1000 μg/ml, medium C, 37 °C, 20 h, 0 = no zone, read-out: Diameter of growth-inhibition zone
Protocol: as §1, §4

[19] = system: Candida albicans; experiment: TLC-bioautography using Candida albicans; assay type: cell-based; details: aqueous layer of culture filtrate; cellulose f, acetonitrile:water (3:1)

With `N[C@@H](Cc1c[nH]oc1=O)C(=O)O` [TAN-950A monosodium salt] the ED50 ([1]; oral) was 105 mg/kg, the ED50 ([1]; sc, subcutaneous) was 40 mg/kg and the acute toxicity [2] was “No acute toxicity”. The Solubility ([3]; acetone) was “Sparingly soluble”, the Solubility ([3]; chloroform) was “Sparingly soluble” and the Solubility ([3]; dimethyl sulfoxide) was “Soluble”. For the same compound, the Solubility ([3]; ethyl acetate) was “Sparingly soluble”, the Solubility ([3]; methanol) was “Soluble” and the Solubility ([3]; water) was “Soluble”.

`N[C@@H](Cc1c[nH]oc1=O)C(=O)O` [TAN-950A] showed a zone of inhibition at 1000 µg/mL ([4]; medium B, 0 = no zone) of 0 mm, a zone of inhibition at 1000 µg/mL ([4]; medium D) of 57 mm and a zone of inhibition at 1000 µg/mL ([5]; medium B) of 21 mm. For the same compound, the zone of inhibition at 1000 µg/mL ([5]; medium D) was 34 mm, the zone of inhibition at 1000 µg/mL ([6]; Williopsis jadinii, IFO0619, medium B, read-out: Diameter of growth-inhibition zone) was 0 mm and the “Diameter of growth-inhibition zone” value ([6]; medium D) was 0 mm. The zone of inhibition at 1000 µg/mL ([7]; medium B, 0 = no zone) was 0 mm, the zone of inhibition at 1000 µg/mL ([7]; medium D) was 27 mm and the zone of inhibition at 1000 µg/mL ([8]; medium B) was 23 mm. It also gave a zone of inhibition at 1000 µg/mL ([8]; medium D) of 35 mm, a zone of inhibition at 1000 µg/mL ([9]; medium B, 66 h, 0 = no zone) of 0 mm and a zone of inhibition at 1000 µg/mL ([9]; medium D, 72 h) of 35 mm. The zone of inhibition at 1000 µg/mL ([10]; medium B) was 24 mm, the zone of inhibition at 1000 µg/mL ([10]; medium D) was 25 mm and the zone of inhibition at 1000 µg/mL ([11]; medium B) was 23 mm. The zone of inhibition at 1000 µg/mL ([11]; medium D) was 26 mm, the zone of inhibition at 1000 µg/mL [12] was 43 mm and the zone of inhibition at 1000 µg/mL [13] was 40 mm. It also gave a zone of inhibition at 1000 µg/mL [14] of 25 mm, a zone of inhibition at 1000 µg/mL [15] of 41 mm and a zone of inhibition at 1000 µg/mL ([16]; medium A, 48 h, 0 = no zone) of 0 mm. It also gave a zone of inhibition at 1000 µg/mL ([16]; medium D, 72 h) of 47 mm, a zone of inhibition at 1000 µg/mL [17] of 0 mm and a zone of inhibition at 1000 µg/mL [18] of 0 mm. For the same compound, the “inhibition zone in TLC-bioautography” value [19] was “inhibition zones”.
